Blank lines part the entries; values can stand above or below the molecule they belong to.
Molecular target: POLRMT (Homo sapiens (Human), UniProt O00411)
Test: homogeneous TR-FRET assay of mitochondrial transcription (inhibition of POLRMT)
Format: biochemical
Conditions: 7.5 nM POLRMT, 15 nM TFB2M, 30 nM TFAM, 0.5 nM DNA template, 500 μM NTPs, 37° C., 60 minutes
Procedure: The inhibitory activity of the compounds of the present invention against POLRMT were determined by assays based on Bergbrede, T., et al., “An adaptable high-throughput technology enabling the identification of specific transcription modulators,” SLAC Discov., 22, 378-386 (2017).
The ability of some compounds of the present invention to inhibit POLRMT were determined in a homogeneous TR-FRET Assay using high-throughput screening in a 384-well plate format. This method is used to monitor the activity of mitochondrial transcription through measurement of its product, a 407 bp long RNA transcript. Detection of the product is facilitated by hybridization of two DNA-oligonucleotide probes to specific and adjacent sequences within the RNA product sequence. Upon annealing of the probes, two fluorophores are coupled directly to an acceptor nucleotide probe (ATT0647, 5′), or introduced via a coupled streptavidin with a biotinylated donor nucleotide probe (Europium cryptate) that is brought into sufficient proximity to serve as a fluorescence-donor-acceptor pair. Thus, a FRET signal at 665 nm is generated upon excitation at 340 nm.
Proteins used as transcription factors (POLRMT: NP_005026.3, TFAM: NP_003192.1, TFB2M: NP_071761.1) are diluted from their stocks to working concentrations of 1 μM, 20 μM and 4 μM respectively, in a dilution buffer containing 20 mM Tris-HCl (pH 8.0), 200 mM NaCl, 10% (v/v) glycerol, 1 mM Dithiothreitol (DTT), 0.5 mM EDTA.
DNA template is a pUC18 plasmid with the mitochondrial light strand promotor sequence (1-477) cloned between HindIII and BamHI sites. The DNA template is restriction linearized proximal to the promotor 3′-end (pUC-LSP). The reaction mixture (10 uL) containing 7.5 nM POLRMT, 15 nM of TFB2M, 30 nM of TFAM, 0.5 nM of DNA template and 500 μM nucleotide triphosphate mix (NTPs) in a reaction buffer (containing 10 mM Tris-HCl (pH 7.5), 10 mM MgCl2, 40 mM NaCl, 10 mM DTT, 0.005% (w/v) Tween-20, 160 units/ml Rnase inhibitor and 0.1 mg/mL BSA) are dispensed to compounds in microplates, using a Thermo Multidrop® dispenser, and incubated at 37° C. in a VWR INCU-Line incubator for 60 minutes after mixing. No nucleotide triphosphate mix is added to negative control samples. Microplates with compounds to be tested in the assay are prepared from 10 mM compound stocks in 100% DMSO, equal amounts of DMSO without any compound are added to positive control and negative control samples.
During the incubation, a mix of the detection reagents is prepared in a buffer such that the enzymatic reaction is terminated due to chelating of Mg-ions and increased ionic strength, containing 50 mM Tris-HCl (pH 7.5), 700 mM NaCl, 20 mM EDTA, and 0.010% (w/v) Tween-20. Europium-streptavidin is pre-incubated with a 200-fold molar excess of a random sequence oligonucleotide to block unspecific binding of oligo, for two hours at ambient temperature in the dark. Afterwards, the blocked Europium-streptavidin is kept on ice until use.
At the end of the enzymatic reaction time, 5 μL detection oligo mix in the detection buffer is added, and assay plates are mixed and kept at ambient temperature for one hour, protected from light. The concentration of the Acceptor nucleotide oligo (e.g., ATTO647N-5′-[…]-3′) and Donor nucleotide oligo (e.g., bio-5′-AACACATCTCT(-bio)GCCAAACCCCA-bio-3′) in each assay well is 1 nM, and 3 nM, respectively.
After incubation with oligo mix, 5 μL of pre-blocked Europium-streptavidin reagent is dispensed to each assay well, assay plates are again mixed and kept at ambient temperature for one hour, protected from light.
The generated signal is measured with BMG Pherastar microtiter plate reader with a TRF light unit, using excitation at 340 nm, an integration time of 200 μs, and a delay time of 100 μs, before detection at 620 nm and 665 nm. The ratio of donor- and acceptor-fluorescence is used as a measure of the generated transcript product (i.e. enzymatic activity).

Chain of POLRMT (O00411 42-1230): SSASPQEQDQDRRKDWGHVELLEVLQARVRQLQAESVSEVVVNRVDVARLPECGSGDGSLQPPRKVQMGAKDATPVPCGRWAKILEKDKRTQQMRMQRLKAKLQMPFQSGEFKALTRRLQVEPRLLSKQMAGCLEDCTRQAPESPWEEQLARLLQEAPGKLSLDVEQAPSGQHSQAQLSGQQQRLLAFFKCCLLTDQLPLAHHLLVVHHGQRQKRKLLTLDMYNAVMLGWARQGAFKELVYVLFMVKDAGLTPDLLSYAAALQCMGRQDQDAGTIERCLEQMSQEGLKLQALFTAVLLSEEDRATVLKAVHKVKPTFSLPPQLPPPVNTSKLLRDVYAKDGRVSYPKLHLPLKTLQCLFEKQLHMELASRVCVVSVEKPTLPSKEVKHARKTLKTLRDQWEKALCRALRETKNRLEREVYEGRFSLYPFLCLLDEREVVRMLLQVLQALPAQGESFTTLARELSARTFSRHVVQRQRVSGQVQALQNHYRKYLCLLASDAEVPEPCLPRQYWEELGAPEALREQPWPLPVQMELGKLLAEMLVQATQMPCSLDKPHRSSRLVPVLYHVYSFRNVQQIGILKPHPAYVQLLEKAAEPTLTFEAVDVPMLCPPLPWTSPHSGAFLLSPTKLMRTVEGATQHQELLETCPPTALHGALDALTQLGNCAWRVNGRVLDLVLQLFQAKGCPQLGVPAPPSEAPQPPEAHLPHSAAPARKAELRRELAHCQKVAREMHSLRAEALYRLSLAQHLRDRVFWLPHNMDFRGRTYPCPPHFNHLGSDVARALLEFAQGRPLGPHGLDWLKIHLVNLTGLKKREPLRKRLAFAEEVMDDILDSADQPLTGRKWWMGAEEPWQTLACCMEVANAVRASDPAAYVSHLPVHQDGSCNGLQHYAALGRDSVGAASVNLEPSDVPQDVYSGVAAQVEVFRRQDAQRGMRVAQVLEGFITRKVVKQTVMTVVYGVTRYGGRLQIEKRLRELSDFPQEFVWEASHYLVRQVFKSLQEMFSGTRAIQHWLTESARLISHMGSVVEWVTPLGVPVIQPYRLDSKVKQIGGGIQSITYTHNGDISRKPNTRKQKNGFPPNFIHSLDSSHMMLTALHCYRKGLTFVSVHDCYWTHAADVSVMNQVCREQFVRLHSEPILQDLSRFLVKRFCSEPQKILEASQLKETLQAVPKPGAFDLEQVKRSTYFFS

Molecule: 2-((4-(2-chloro-4-fluorophenyl)-2-oxo-2H-chromen-7-yl)oxy)-3-methoxypropanamide [Example 76]
IC50: 44000 nM

Molecule: 2-((4-(2-chloro-4-fluorophenyl)-2-oxo-2H-chromen-7-yl)oxy)-3-methoxypropanamide [Example 77]
IC50: 2000 nM

Molecule: Cc1ccccc1-c1cc(=O)oc2cc(OCC3CCCCO3)ccc12 (single isomer, unassigned) [Example 39, 7-((tetrahydro-2H-pyran-2-yl)methoxy)-4-(o-tolyl)-2H-chromen-2-one]
IC50: 900 nM

Molecule: Cc1ccccc1-c1cc(=O)oc2cc(OCC3CCCCO3)ccc12 (single isomer, unassigned) [Example 40, 7-((tetrahydro-2H-pyran-2-yl)methoxy)-4-(o-tolyl)-2H-chromen-2-one]
IC50: 3000 nM

Molecule: Cc1ccccc1-c1cc(=O)oc2cc(OC(C)C#N)ccc12 (single isomer, unassigned) [Example 43, 2-((2-oxo-4-(o-tolyl)-2H-chromen-7-yl)oxy)propanenitrile]
IC50: 1000 nM

Molecule: Cc1ccccc1-c1cc(=O)oc2cc(OC3CCCOC3)ccc12 (single isomer, unassigned) [Example 48, 7-((tetrahydro-2H-pyran-3-yl)oxy)-4-(o-tolyl)-2H-chromen-2-one]
IC50: 3000 nM

Molecule: Cc1ccccc1-c1cc(=O)oc2cc(OC3CCCOC3)ccc12 (single isomer, unassigned) [Example 49, 7-((tetrahydro-2H-pyran-3-yl)oxy)-4-(o-tolyl)-2H-chromen-2-one]
IC50: 1000 nM

Molecule: COCC(Oc1ccc2c(-c3ccc(F)cc3Cl)cc(=O)oc2c1)C(N)=O (single isomer, unassigned) [Example 74, 2-((4-(2-chloro-4-fluorophenyl)-2-oxo-2H-chromen-7-yl)oxy)-3-methoxypropanamide]
IC50: 13000 nM

Molecule: COCC(Oc1ccc2c(-c3ccc(F)cc3Cl)cc(=O)oc2c1)C(N)=O (single isomer, unassigned) [Example 75, 2-((4-(2-chloro-4-fluorophenyl)-2-oxo-2H-chromen-7-yl)oxy)-3-methoxypropanamide]
IC50: 2000 nM

Molecule: Cc1ccccc1-c1cc(=O)oc2cc(OC(CO)C(=O)N(C)C)ccc12 (single isomer, unassigned) [Example 79, 3-hydroxy-N,N-dimethyl-2-[4-(o-tolyl)-2-oxo-2H-chromen-7-yl]oxy-propanamide]
IC50: 32000 nM

Molecule: CCNC(=O)C(COC)Oc1ccc2c(-c3ccccc3C)cc(=O)oc2c1 (single isomer, unassigned) [Example 80, N-ethyl-3-methoxy-2-((2-oxo-4-(o-tolyl)-2H-chromen-7-yl)oxy)propanamide]
IC50: 15000 nM

Molecule: COCC(Oc1ccc2c(-c3ccccc3C)cc(=O)oc2c1)C(=O)NCC(F)(F)F (single isomer, unassigned) [Example 82, 3-methoxy-2-((2-oxo-4-(o-tolyl)-2H-chromen-7-yl)oxy)-N-(2,2,2-trifluoroethyl)propanamide]
IC50: 5000 nM

Molecule: COCC(Oc1ccc2c(-c3ccc(F)cc3Cl)cc(=O)oc2c1)C(=O)N(C)C (single isomer, unassigned) [Example 86, 2-((4-(2-chloro-4-fluorophenyl)-2-oxo-2H-chromen-7-yl)oxy)-3-methoxy-N,N-dimethylpropanamide]
IC50: > 100000 nM

Molecule: COCCNC(=O)C(COC)Oc1ccc2c(-c3ccccc3C)cc(=O)oc2c1 (single isomer, unassigned) [Example 87, 3-methoxy-N-(2-methoxyethyl)-2-((2-oxo-4-(o-tolyl)-2H-chromen-7-yl)oxy)propanamide]
IC50: 36000 nM

Molecule: COCC(Oc1ccc2c(-c3ccccc3C)cc(=O)oc2c1)C(=O)N1CCC1 (single isomer, unassigned) [Example 90, 7-((1-(azetidin-1-yl)-3-methoxy-1-oxopropan-2-yl)oxy)-4-(o-tolyl)-2H-chromen-2-one]
IC50: 10000 nM

These reach a lower IC50. Values come first.

IC50: 300 nM
Molecule: COCC(C)Oc1ccc2c(-c3ccccc3C)cc(=O)oc2c1 (racemic) [Example 25, 7-((1-methoxypropan-2-yl)oxy)-4-(o-tolyl)-2H-chromen-2-one]

IC50: 300 nM
Molecule: COCC(C)Oc1ccc2c(-c3ccccc3C)cc(=O)oc2c1 (single isomer, unassigned) [Example 26, 7-((1-methoxypropan-2-yl)oxy)-4-(o-tolyl)-2H-chromen-2-one]

IC50: 600 nM
Molecule: COCC(C)Oc1ccc2c(-c3ccccc3C)cc(=O)oc2c1 (single isomer, unassigned) [Example 27, 7-((1-methoxypropan-2-yl)oxy)-4-(o-tolyl)-2H-chromen-2-one]

IC50: 50 nM
Molecule: Cc1ccccc1-c1cc(=O)oc2cc(OC(C)C#N)ccc12 (single isomer, unassigned) [Example 42, 2-((2-oxo-4-(o-tolyl)-2H-chromen-7-yl)oxy)propanenitrile]

IC50: 100 nM
Molecule: CCC(COC)Oc1ccc2c(-c3ccccc3C)cc(=O)oc2c1 (single isomer, unassigned) [Example 45, 7-((1-methoxybutan-2-yl)oxy)-4-(o-tolyl)-2H-chromen-2-one]

IC50: 300 nM
Molecule: CCC(COC)Oc1ccc2c(-c3ccccc3C)cc(=O)oc2c1 (single isomer, unassigned) [Example 46, 7-((1-methoxybutan-2-yl)oxy)-4-(o-tolyl)-2H-chromen-2-one]

IC50: 600 nM
Molecule: COCC(C)Oc1cc(C)c2c(-c3ccccc3C)cc(=O)oc2c1 (single isomer, unassigned) [Example 59, 7-((1-methoxypropan-2-yl)oxy)-5-methyl-4-(o-tolyl)-2H-chromen-2-one]

IC50: 500 nM
Molecule: COCC(C)Oc1cc(C)c2c(-c3ccccc3C)cc(=O)oc2c1 (single isomer, unassigned) [Example 60, 7-((1-methoxypropan-2-yl)oxy)-5-methyl-4-(o-tolyl)-2H-chromen-2-one]

IC50: 500 nM
Molecule: Cc1ccccc1-c1cc(=O)oc2cc(OC(CO)C(=O)N(C)C)ccc12 (single isomer, unassigned) [Example 78, 3-hydroxy-N,N-dimethyl-2-[4-(o-tolyl)-2-oxo-2H-chromen-7-yl]oxy-propanamide]

IC50: 200 nM
Molecule: CCNC(=O)C(COC)Oc1ccc2c(-c3ccccc3C)cc(=O)oc2c1 (single isomer, unassigned) [Example 81, N-ethyl-3-methoxy-2-((2-oxo-4-(o-tolyl)-2H-chromen-7-yl)oxy)propanamide]

IC50: 200 nM
Molecule: COCC(Oc1ccc2c(-c3ccccc3C)cc(=O)oc2c1)C(=O)NCC(F)(F)F (single isomer, unassigned) [Example 83, 3-methoxy-2-((2-oxo-4-(o-tolyl)-2H-chromen-7-yl)oxy)-N-(2,2,2-trifluoroethyl)propanamide]

IC50: 200 nM
Molecule: COCC(Oc1ccc2c(-c3ccc(F)cc3Cl)cc(=O)oc2c1)C(=O)N(C)C (single isomer, unassigned) [Example 85, 2-((4-(2-chloro-4-fluorophenyl)-2-oxo-2H-chromen-7-yl)oxy)-3-methoxy-N,N-dimethylpropanamide]

IC50: 500 nM
Molecule: COCCNC(=O)C(COC)Oc1ccc2c(-c3ccccc3C)cc(=O)oc2c1 (single isomer, unassigned) [Example 88, 3-methoxy-N-(2-methoxyethyl)-2-((2-oxo-4-(o-tolyl)-2H-chromen-7-yl)oxy)propanamide]

IC50: 200 nM
Molecule: COCC(Oc1ccc2c(-c3ccccc3C)cc(=O)oc2c1)C(=O)N1CCC1 (single isomer, unassigned) [Example 89, 7-((1-(azetidin-1-yl)-3-methoxy-1-oxopropan-2-yl)oxy)-4-(o-tolyl)-2H-chromen-2-one]
